The assay has as its target T1, human GABA A receptor α5β3γ2 (GABA Aa5) (Homo sapiens, UniProt P18507+P31644).
T1 construct: expressed in transfected cells; host or cells: HEK293 cells, transiently transfected; membranes prepared
As to the kind of experiment: [3H]flumazenil competition binding, HEK293 cells expressing human receptors. Conditions: displacement of [3H]flumazenil 0.5 nM; HEK293 transiently transfected human receptors; means of two determinations; read-out: hKi (GABA Aa5). As to the method: The ability of compounds present invention to bind to GABA A receptor subtypes was determined by competition for [^3H]flumazenil (85 Ci/mmol; Roche) binding to HEK293 cells expressing rat (stably transfected) or human (transiently transfected) receptors of composition α1β2/3γ2, α2β3γ2, α3β3γ2 and α5β3γ2.
Cell pellets were suspended in Krebs-tris buffer (4.8 mM KCl, 1.2 mM CaCl2, 1.2 mM MgCl2, 120 mM NaCl, 15 mM Tris; pH 7.5; binding assay buffer), homogenized by polytron for ca. 20 sec on ice and centrifuged for 60 min at 4° C. (50000 g; Sorvall, rotor: SM24=20000 rpm). The cell pellets were resuspended in Krebs-tris buffer and homogenized by polytron for ca. 15 sec on ice. Protein was measured (Bradford method, Bio-Rad) and aliquots of 1 mL were prepared and stored at −80° C.
Assays were incubated to equilibrium for 1 hour at 4° C. and harvested onto GF/C uni-filters (Packard) by filtration using a Packard harvester and washing with ice-cold wash buffer (50 mM Tris; pH 7.5). After drying, filter-retained radioactivity was detected by liquid scintillation counting.
Ki values were calculated using Excel-Fit (Microsoft) and are the means of two determinations.
Representative test results, obtained by the above described assay measuring binding affinity to HEK293 cells expressing human (h) receptors, are shown in Table 1 below.

For the compound `Cn1nnc(-c2ccccc2F)c1-c1cn(-c2ccc(C(N)=O)cn2)cn1` [Example 25, 6-(4-(4-(2-Fluorophenyl)-1-methyl-1H-1,2,3-triazol-5-yl)-1H-imidazol-1-yl)nicotinamide], the Ki was 19.3 nM.

Consider `Cn1nnc(-c2ccc(F)cc2)c1-c1cn(-c2ccc(C(F)(F)F)cn2)cn1` [Example 15, 2-{4-[5-(4-Fluoro-phenyl)-3-methyl-3H-[1,2,3]triazol-4-yl]-imidazol-1-yl}-5-trifluoromethyl-pyridine], for which the Ki worked out at 82.2 nM.

Take `Cn1nnc(-c2ccccc2F)c1-c1cn(-c2ccc(C(F)(F)F)cn2)cn1` [Example 30, 2-(4-(4-(2-Fluorophenyl)-1-methyl-1H-1,2,3-triazol-5-yl)-1H-imidazol-1-yl)-5-(trifluoromethyl)pyridine]: the Ki stood at 65 nM.

Consider `COC(=O)c1ccc(-n2cnc(-c3c(C)nnn3-c3ccccc3F)c2)cc1` [Example 33, Methyl 4-(4-(1-(2-fluorophenyl)-4-methyl-1H-1,2,3-triazol-5-yl)-1H-imidazol-1-yl)benzoate], for which the Ki came out at 34.5 nM.

For the compound `Cn1nnc(-c2ccc(F)cc2)c1-c1cn(-c2ccc(C(N)=O)cc2)cn1` [Example 7, 4-{4-[5-(4-Fluoro-phenyl)-3-methyl-3H-[1,2,3]triazol-4-yl]-imidazol-1-yl}-benzamide], the Ki is 18.8 nM.

`COC(=O)c1ccc(-n2cnc(-c3c(-c4ccc(F)cc4)nnn3C)c2)cc1` [Example 2, 4-{4-[5-(4-Fluoro-phenyl)-3-methyl-3H-[1,2,3]triazol-4-yl]-imidazol-1-yl}-benzoic acid methyl ester]: the Ki is 41.2 nM.

Take `Cc1nnn(-c2ccc(F)cc2)c1-c1cn(-c2ccc(C(=O)N3CC4(COC4)C3)cn2)cn1` [Example 39, (6-(4-(1-(4-Fluorophenyl)-4-methyl-1H-1,2,3-triazol-5-yl)-1H-imidazol-1-yl)pyridin-3-yl)(2-oxa-6-azaspiro[3.3]heptan-6-yl)methanone]: the Ki was determined as 35.8 nM.

Regarding `Cn1nnc(-c2ccccc2F)c1-c1cn(-c2ccc(C(=O)O)cn2)cn1` [Example 21, 6-(4-(4-(2-Fluorophenyl)-1-methyl-1H-1,2,3-triazol-5-yl)-1H-imidazol-1-yl)nicotinic acid], the Ki turned out to be 86 nM.

As to `Cn1nnc(-c2ccc(F)cc2)c1-c1cn(-c2ccc(C(N)=O)cn2)cn1` [Example 16, 6-(4-(4-(4-Fluorophenyl)-1-methyl-1H-1,2,3-triazol-5-yl)-1H-imidazol-1-yl)nicotinamide], the Ki worked out at 12.1 nM.

In the case of `COC(=O)c1ccc(-n2cnc(-c3c(C)nnn3-c3ccc(F)cc3)c2)nc1` [Example 35, Methyl 6-(4-(1-(4-fluorophenyl)-4-methyl-1H-1,2,3-triazol-5-yl)-1H-imidazol-1-yl)nicotinate], the Ki amounted to 26.3 nM.

For `Cn1nnc(-c2ccccc2F)c1-c1cn(-c2ccc(C(=O)NCC(C)(C)O)cn2)cn1` [Example 24, 6-(4-(4-(2-Fluorophenyl)-1-methyl-1H-1,2,3-triazol-5-yl)-1H-imidazol-1-yl)-N-(2-hydroxy-2-methylpropyl)nicotinamide], the Ki is 21.3 nM.

Consider `Cn1nnc(-c2ccccc2F)c1-c1cn(-c2ccc(C(=O)NN3CCOCC3)cn2)cn1` [Example 28, 6-(4-(4-(2-Fluorophenyl)-1-methyl-1H-1,2,3-triazol-5-yl)-1H-imidazol-1-yl)-N-morpholinonicotinamide], for which the Ki came out at 32.4 nM.

For `Cc1nnn(-c2ccccc2F)c1-c1cn(-c2ccc(C(=O)NC3CC3)cn2)cn1` [Example 52, N-Cyclopropyl-6-(4-(1-(2-fluorophenyl)-4-methyl-1H-1,2,3-triazol-5-yl)-1H-imidazol-1-yl)nicotinamide], the Ki stood at 10.9 nM.

Turning to `Cn1nnc(-c2ccccc2F)c1-c1cn(-c2ccc(C(=O)N3CC4(COC4)C3)cn2)cn1` [Example 26, (6-(4-(4-(2-Fluorophenyl)-1-methyl-1H-1,2,3-triazol-5-yl)-1H-imidazol-1-yl)pyridin-3-yl)(2-oxa-6-azaspiro[3.3]heptan-6-yl)methanone], the Ki is 66.5 nM.

Regarding `Cn1nnc(-c2ccccc2F)c1-c1cn(-c2ccc(C(F)(F)F)cc2)cn1` [Example 8, 4-(2-Fluorophenyl)-1-methyl-5-(1-(4-(trifluoromethyl)phenyl)-1H-imidazol-4-yl)-1H-1,2,3-triazole], the Ki was determined as 84.3 nM.

As for `Cc1nnn(-c2ccccc2F)c1-c1cn(-c2ccc(C(=O)NN3CCOCC3)cn2)cn1` [Example 51, 6-(4-(1-(2-Fluorophenyl)-4-methyl-1H-1,2,3-triazol-5-yl)-1H-imidazol-1-yl)-N-morpholinonicotinamide], the Ki was 50.5 nM.

Take `Cc1nnn(-c2ccccc2F)c1-c1cn(-c2ccc(C(=O)NC3CCOCC3)cn2)cn1` [Example 46, 6-(4-(1-(2-Fluorophenyl)-4-methyl-1H-1,2,3-triazol-5-yl)-1H-imidazol-1-yl)-N-(tetrahydro-2H-pyran-4-yl)nicotinamide]: the Ki is 49 nM.

Regarding `Cn1nnc(-c2ccccc2Cl)c1-c1cn(-c2ccc(C(N)=O)cn2)cn1` [Example 19, 6-(4-(4-(2-Chlorophenyl)-1-methyl-1H-1,2,3-triazol-5-yl)-1H-imidazol-1-yl)nicotinamide], the Ki is 66.2 nM.

On to `CC(C)NC(=O)c1ccc(-n2cnc(-c3c(-c4ccc(F)cc4)nnn3C)c2)nc1` [Example 11, 6-{4-[5-(4-Fluoro-phenyl)-3-methyl-3H-[1,2,3]triazol-4-yl]-imidazol-1-yl}-N-isopropyl-nicotinamide], for which the Ki came out at 14.7 nM.

Turning to `COC(=O)c1ccc(-n2cnc(-c3c(-c4ccccc4Cl)nnn3C)c2)nc1` [Example 17, Methyl 6-(4-(4-(2-chlorophenyl)-1-methyl-1H-1,2,3-triazol-5-yl)-1H-imidazol-1-yl)nicotinate], the Ki was 68.8 nM.

As for `Cc1nnn(-c2ccc(F)cc2)c1-c1cn(-c2ccc(C(=O)NC3CC3)cn2)cn1` [Example 42, N-Cyclopropyl-6-(4-(1-(4-fluorophenyl)-4-methyl-1H-1,2,3-triazol-5-yl)-1H-imidazol-1-yl)nicotinamide], the Ki turned out to be 3.2 nM.

As for `Cc1nnn(-c2ccc(F)cc2)c1-c1cn(-c2ccc(C(=O)NN3CCOCC3)cn2)cn1` [Example 45, 6-(4-(1-(4-Fluorophenyl)-4-methyl-1H-1,2,3-triazol-5-yl)-1H-imidazol-1-yl)-N-morpholinonicotinamide], the Ki is 69.4 nM.

With `Cc1nnn(-c2ccccc2F)c1-c1cn(-c2ccc(C(N)=O)cn2)cn1` [Example 48, 6-(4-(1-(2-Fluorophenyl)-4-methyl-1H-1,2,3-triazol-5-yl)-1H-imidazol-1-yl)nicotinamide], the Ki turned out to be 17.8 nM.

Consider `Cc1nnn(-c2ccccc2F)c1-c1cn(-c2ccc(C(=O)NC3(C)COC3)cn2)cn1` [Example 50, 6-(4-(1-(2-Fluorophenyl)-4-methyl-1H-1,2,3-triazol-5-yl)-1H-imidazol-1-yl)-N-(3-methyloxetan-3-yl)nicotinamide], for which the Ki is 17.9 nM.

Regarding `Cn1nnc(-c2ccc(F)cc2)c1-c1cn(-c2ccc(C(=O)NC3(C)COC3)cc2)cn1` [Example 5, 4-{4-[5-(4-Fluoro-phenyl)-3-methyl-3H-[1,2,3]triazol-4-yl]-imidazol-1-yl}-N-(3-methyl-oxetan-3-yl)-benzamide], the Ki was found to be 23.8 nM.
